According to PubChem BioAssay (NCI):
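Grown in 96-well plates, cells were treated for 48 hours with each compound at five concentrations. Insufficient inhibition: endpoint recorded as highest concentration tested. Definition used: TGI = concentration required for complete inhibition of growth.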

How the values were obtained:
Experiment in all cases: NCI anticancer screen, dose series, 48 h
[1] = system: SW-620 colon
[2] = system: BT-549 breast
[3] = system: U251 CNS
[4] = system: SK-MEL-5 melanoma
[5] = system: UACC-257 melanoma
[6] = system: HCC-2998 colon
[7] = system: MDA-MB-435
[8] = system: EKVX NSCLC
[9] = system: RPMI-8226 leukemia
[10] = system: M14 melanoma
[11] = system: TK-10 renal
[12] = system: OVCAR-4 ovarian
[13] = system: NCI/ADR-RES ovarian
[14] = system: SF-295 CNS
[15] = system: SNB-19 CNS
[16] = system: SNB-75 CNS
[17] = system: T-47D breast
[18] = system: COLO 205 colon
[19] = system: HL-60(TB) leukemia
[20] = system: HCT-15 colon
[21] = system: DU-145 prostate
[22] = system: SF-268 CNS
[23] = system: RXF 393 renal
[24] = system: CCRF-CEM leukemia
[25] = system: PC-3 prostate
[26] = system: UO-31 renal
[27] = system: NCI-H23 lung
[28] = system: UACC-62 melanoma
[29] = system: OVCAR-8 ovarian
[30] = system: OVCAR-5 ovarian
[31] = system: LOX IMVI melanoma
[32] = system: MALME-3M melanoma
[33] = system: SN12C renal
[34] = system: SK-MEL-28 melanoma
[35] = system: OVCAR-3 ovarian
[36] = system: CAKI-1 renal
[37] = system: NCI-H460 lung
[38] = system: MCF7 breast
[39] = system: SK-OV-3 ovarian
[40] = system: HOP-92 NSCLC
[41] = system: SK-MEL-2 melanoma
[42] = system: MDA-N
[43] = system: HT29 colon
[44] = system: A498 renal
[45] = system: HS 578T breast
[46] = system: K-562 leukemia
[47] = system: 786-0 renal
[48] = system: MDA-MB-231 breast
[49] = system: HCT-116 colon
[50] = system: NCI-H522 lung
[51] = system: IGROV1 ovarian
[52] = system: HOP-62 NSCLC
[53] = system: KM12 colon
[54] = system: A549 NSCLC
[55] = system: ACHN renal
[56] = system: MOLT-4 leukemia

Cc1cc2nc(N3C(=O)/C(=C/c4ccc(Oc5ccccc5)cc4)N=C3c3ccccc3)sc2cc1C
TGI [1]: > 100 µM
TGI [2]: > 100 µM
TGI [3]: > 100 µM
TGI [4]: > 100 µM
TGI [5]: > 100 µM
TGI [6]: > 100 µM
TGI [7]: 83.4 µM
TGI [8]: > 100 µM
TGI [9]: 86.8 µM
TGI [10]: > 100 µM
TGI [11]: > 100 µM
TGI [12]: > 100 µM
TGI [13]: 91.6 µM
TGI [14]: > 100 µM
TGI [15]: > 100 µM
TGI [16]: > 100 µM
TGI [17]: > 100 µM
TGI [18]: 47.6 µM
TGI [19]: 63.8 µM
TGI [20]: > 100 µM
TGI [21]: > 100 µM
TGI [22]: > 100 µM
TGI [23]: > 100 µM
TGI [24]: > 100 µM
TGI [25]: > 100 µM
TGI [26]: > 100 µM
TGI [27]: > 100 µM
TGI [28]: > 100 µM
TGI [29]: > 100 µM
TGI [30]: > 100 µM
TGI [31]: > 100 µM
TGI [32]: > 100 µM
TGI [33]: > 100 µM
TGI [34]: > 100 µM
TGI [35]: > 100 µM
TGI [36]: > 100 µM
TGI [37]: > 100 µM
TGI [38]: > 100 µM
TGI [39]: > 100 µM
TGI [40]: > 100 µM
TGI [41]: 71.6 µM
TGI [42]: > 100 µM
TGI [43]: > 100 µM
TGI [44]: > 100 µM
TGI [45]: > 100 µM
TGI [46]: > 100 µM
TGI [47]: > 100 µM
TGI [48]: > 100 µM
TGI [49]: > 100 µM
TGI [50]: 80.5 µM
TGI [51]: > 100 µM
TGI [52]: > 100 µM
TGI [53]: > 100 µM
TGI [54]: > 100 µM
TGI [55]: > 100 µM
TGI [56]: > 100 µM
